Test results taken from patent publication US9605013B2, “Derivatives of hemin with antibacterial and antiviral activity” (OBSCHESTVO S OGRANICHENNOI OTVETSTVENNOSTIYU …, priority 2011, dated 2017).

Test system: Herpes Simplex Virus type 1 strain EC
Assay: Antiviral activity, virus cytopathogenic action in Vero cells
Type: cell-based
Parameters: key: 0: CPA (cytopathogenic action) is not detected; 1: up to 25% virus-infected monolayer; from 25% to 50%; 3: from 50% to 75%; 4: from 75% to 100%
Settings: 48 hours
[1] = HSV-1, virus dose 1, concentration 0.1 μM
[2] = HSV-1, virus dose 1, concentration 1 μM
[3] = HSV-1, virus dose 1, concentration 10 μM
[4] = HSV-1, virus dose 10, concentration 0.1 μM
[5] = HSV-1, virus dose 10, concentration 1 μM
[6] = HSV-1, virus dose 10, concentration 10 μM
[7] = HSV-1, virus dose 100, concentration 0.1 μM
[8] = HSV-1, virus dose 100, concentration 1 μM
[9] = HSV-1, virus dose 100, concentration 10 μM

| Molecule | manifestation of the virus CPA [1] | manifestation of the virus CPA [2] | manifestation of the virus CPA [3] | manifestation of the virus CPA [4] | manifestation of the virus CPA [5] | manifestation of the virus CPA [6] | manifestation of the virus CPA [7] | manifestation of the virus CPA [8] | manifestation of the virus CPA [9] |
| --- | --- | --- | --- | --- | --- | --- | --- | --- | --- |
| 6,7-bis-(Amide N^α-Glycyl)-Protohemin (IX) [IV] | 1 (up to 25% virus-infected monolayer) | 1 (up to 25% virus-infected monolayer) | 0^1 | 2 (from 25% to 50%) | 2 (from 25% to 50%) | 0^1 | 3 (from 50% to 75%) | 3 (from 50% to 75%) | 2^1 (from 25% to 50%) |
| C=CC1=C(C)c2cc3[n-]c(cc4[n-]c(cc5nc(cc1n2)C(C)=C5C=C)c(C)c4CCC(=O)N[C@@H](CO)C(=O)O)c(CCC(=O)N[C@@H](CO)C(=O)O)c3C.[Cl-].[Fe+3] [VI, 6,7-bis-(N^α-Seryl]-Protohemin (IX)] | 0^1 | 0^1 | 0^1 | 2 (from 25% to 50%) | 2 (from 25% to 50%) | 2^ (from 25% to 50%) | 3 (from 50% to 75%) | 3.3 scores | 3 (from 50% to 75%) |
